Results on two compounds are retold here after patent US5023263A, “42-oxorapamycin” (American Home Products Corporation, priority 1990, dated 1991).

By MIC is commonly meant the lowest concentration that inhibits growth of the organism. The low end stands for greater potency, the high end for weaker potency.

Converted amounts (≈) assume the structure as drawn.

In experiment [1] the test system is pinch skin graft. The experiment is described as follows: survival time of pinch skin graft. In kind it is in vivo, mice (male DBA/2 donors, male BALB/c recipients). How it is done: (§1) Immunosuppressive activity was evaluated in an in vitro standard pharmacological test procedure to measure lymphocyte proliferation (LAF) and in two in vivo standard pharmacological test procedures. The first in vivo procedure was a popliteal lymph node (PLN) test procedure which measured the effect of compounds of this invention on a mixed lymphocyte reaction and the second in vivo procedure evaluated the survival time of a pinch skin graft.
The second in vivo test procedure is designed to determine the survival time of pinch skin graft from male DBA/2 donors transplanted to male BALB/c recipients. The method is adapted from Billingham R. E. and Medawar P. B., J. Exp. Biol. 28:385-402, (1951). Briefly, a pinch skin graft from the donor is grafted on the dorsum of the recipient as a homograft, and an autograft is used as control in the same region. […] Untreated recipients serve as rejection control. The graft is monitored daily and observations are recorded until the graft becomes dry and forms a blackened scab. This is considered as the rejection day. The mean graft survival time (number of days ±S.D.) of the drug treatment group is compared with the control group.

Experiment [2] has as its system Candida albicans ATCC 38248. Briefly: antifungal plate assay (MIC). In kind it is cell-based. The note with it: ATCC38248, plate disk assay. How it is done:
(§2) The following represents the typical assay procedure used. Compound to be tested was placed on sterile dried 1/4" plate disks, and allowed to dry. Agar plates were seeded with fungi and allowed to solidify. The impregnated disks were placed on the seeded Agar surface and incubated for the time required for the particular culture. Results are expressed in MIC (μg/ml) to inhibit growth.

In experiment [3] the test system is Candida albicans ATCC 10231. The experiment is described as follows: antifungal plate assay (MIC). It is filed as cell-based. The note with it: ATCC10231, plate disk assay. How it is done:
as §2

The subject of experiment [4] is Candida albicans ATCC 38247. Briefly: antifungal plate assay (MIC). In kind it is cell-based. Conditions: ATCC38247, plate disk assay. How it is done:
as §2

In experiment [5] the test system is Candida albicans 3669. Briefly: antifungal plate assay (MIC). In kind it is cell-based. The note with it: strain 3669, plate disk assay. The method, then: as §2
The test system of experiment [6] is Candida albicans ATCC 38246. Briefly: antifungal plate assay (MIC). It is filed as cell-based. Conditions: ATCC38246, plate disk assay. How it is done: as §2
Experiment [7] concerns mixed lymphocyte reaction (popliteal lymph node). Briefly: in vivo popliteal lymph node (PLN) test procedure (mixed lymphocyte reaction). More on the design: species or system mice (irradiated BALB/c spleen cells into C3H recipients). The note with it: for PLN (ratio): Table 1, daily p.o. Day 0 to Day 4. How it is done: as §1
A mixed lymphocyte reaction (MLR) occurs when lymphoid cells from genetically distinct animals are combined in tissue culture. Each stimulates the other to undergo blast transformation which results in increased DNA synthesis that can be quantified by the incorporation of tritiated thymidine. Since stimulating a MLR is a function of disparity at Major Histocompatibility antigens, an in vivo popliteal lymph node (PLN) test procedure closely correlates to host vs. graft disease. Briefly, irradiated spleen cells from BALB/c donors are injected into the right hind foot pad of recipient C3H mice. The drug is given daily, p.o. from Day 0 to Day 4. On Day 3 and Day 4, tritiated thymidine is given i.p., b.i.d. On Day 5, the hind popliteal lymph nodes are removed and dissolved, and radioactivity counted. The corresponding left PLN serves as the control for the PLN from the injected hind foot. Percent suppression is calculated using the non-drug treated animals as allogenic control. […] Results are expressed by the following ratio: [formula]

Experiment [8] has as its system transplant rejection. The note with it: cited from earlier work.
For experiment [9], the system named is adjuvant arthritis. Conditions: model for rheumatoid arthritis; cited from earlier work.
Experiment [10] has as its system Candida albicans. The note with it: in vitro and in vivo; cited from earlier work.
Experiment [11] has as its system IgE-like antibodies. Conditions: in vivo; cited from earlier work.
In experiment [12] the test system is experimental allergic encephalomyelitis. The note with it: model for multiple sclerosis; cited from earlier work.

For `CO[C@H]1C[C@@H]2CC[C@@H](C)[C@@](O)(O2)C(=O)C(=O)N2CCCC[C@H]2C(=O)O[C@H]([C@H](C)C[C@@H]2CCC(=O)[C@H](OC)C2)CC(=O)[C@H](C)/C=C(\C)[C@@H](O)[C@@H](OC)C(=O)[C@H](C)C[C@H](C)/C=C/C=C/C=C/1C` [42-oxorapamycin], the “Skin Graft survival time (days + SD)” value in [1] (mean ± S.D., intraperitoneally) was 10.17 ± 0.41 days. In addition, the “survival time of the skin graft, in words” value in experiment [1] (vs rejection within 6-7 days without immunosuppressive agent) is listed as “increased survival time”. For the same compound, the MIC was 0.025 µg/mL (≈ 0.0274 µM) in [2]; 0.006 µg/mL (≈ 0.00658 µM) in [3]; 0.125 µg/mL (≈ 0.137 µM) in experiment [4]; 0.05 µg/mL (≈ 0.0548 µM) in experiment [5]; 0.05 µg/mL (≈ 0.0548 µM) in experiment [6]. Further, the “PLN test result in words” value in experiment [7] (interpretation of negative PLN ratio) is on record as “may cause T cell proliferation”. For the same compound, in experiment [7], the “PLN (ratio)” value was -0.93.

Consider `CO[C@H]1C[C@@H]2CC[C@@H](C)[C@@](O)(O2)C(=O)C(=O)N2CCCC[C@H]2C(=O)O[C@H]([C@H](C)C[C@@H]2CC[C@@H](O)[C@H](OC)C2)CC(=O)[C@H](C)/C=C(\C)[C@@H](O)[C@@H](OC)C(=O)[C@H](C)C[C@H](C)/C=C/C=C/C=C/1C` [Rapamycin, rapamycin], for which the “inhibition of transplant rejection” value in experiment [8] is given as “effective in inhibiting transplant rejection”. Also, in experiment [9], the “effect in adjuvant arthritis model” value is “effective”. Moreover, the MIC in experiment [2] amounted to 0.006 µg/mL (≈ 0.00656 µM); in experiment [3], 0.003 µg/mL (≈ 0.00328 µM); in experiment [4], 0.003 µg/mL (≈ 0.00328 µM); in [5] it was 0.025 µg/mL (≈ 0.0273 µM); in experiment [6], 0.025 µg/mL (≈ 0.0273 µM). In experiment [7] (6 mg/kg, p.o., vs non-drug treated allogenic control), the “Percent suppression (PLN)” value worked out at 86%. Further, in experiment [7], the “PLN (ratio)” value is 1.0. Also, the antifungal activity entry in [10] is “antifungal activity”. Further, in experiment [11], the “inhibition of formation of IgE-like antibodies” value is reported as “effectively inhibited”. Also, the “effect in experimental allergic encephalomyelitis model” value in [12] is given as “effective”.
